Laboratory results taken from patent US20210363110A1, “4-METHYLDIHYDROPYRIMIDINONE COMPOUNDS AND PHARMACEUTICAL USE THEREOF” (Japan Tobacco Inc., priority 2018, published 2021).

Tested on: IL-17 production in plasmas
Assay: IL-17 production in plasmas of cytokine-stimulated normal mice
Assay type: in vivo, C57BL/6J mice
Conditions: 0.1 mg/mL suspension, 0.2 mL/head orally, single, 28 hours before IL-1 beta/IL-23 i.v.; blood 2 hours after cytokine
Description: Effects of test substances on IL-17 production in plasmas were assessed in normal mice. The assessment was performed according to Non Patent Literature 32. Nine-week old female C57BL/6J mice (Japan Charles River K. K.) were used as a test animal.
A mixed solution prepared by mixing Recombinant Mouse IL-1 beta/IL-1F2 Protein (R&D systems, INC.) and Recombinant Mouse IL-23 Protein (R&D systems, INC.) at a final concentration of 1.5 μg/mL was administered intravenously to all groups at the tail vein at a volume of 200 μL/head. Blood was collected 2 hours after the administration of cytokine solution.
Administration was performed 28 hours before the administration of cytokine solution. 0.5% (w/v) methyl cellulose (MC) and 0.1 mg/mL of a test substance suspended in 0.5% (w/v) MC were administered orally at a single volume of 0.2 mL/head to Vehicle group and a compound-administered group, respectively.
Blood was separated by centrifugation, and then the IL-17 concentration in plasma was measured with Quantikine (Registered trade mark) Mouse IL-17 ELISA Kit (R&D systems, Inc.).
The IL-17 concentration of Vehicle group was deemed to be 100%, and the IL-17 concentration percentage of the compound-administered group to the Vehicle group was calculated from the following equation.
%=a/b×100 a: IL-17 concentration of the compound-administered group b: IL-17 concentration of the Vehicle group

| SMILES | IL-17 concentration (%) relative to Vehicle group [%] |
| --- | --- |
| CC[C@H](C)C1=CN(C23CC(C(=O)O)(C2)C3)C(=O)N[C@@]1(C)c1ccc([C@@H]2C[C@H]2C(C)(C)C)c(Cl)c1 [Compound (2), 3-{(S)-5-((S)-sec-Butyl)-4-[4-((1R,2R)-2-tert-butyl-cyclopropyl)-3-chloro-phenyl]-4-methyl-2-oxo-3,4-dihydro-2H-pyrimidin-1-yl}bicyclo[1.1.1]pentane-1-carboxylic acid] | 67 |
| CC(C)C1=CN(C23CC(C(=O)O)(C2)C3)C(=O)N[C@@]1(C)c1ccc([C@@H]2C[C@H]2C(C)(C)C)c(Cl)c1 [Compound (1), 3-{(S)-4-[4-((1R,2R)-2-tert-Butyl-cyclopropyl)-3-chloro-phenyl]-5-isopropyl-4-methyl-2-oxo-3,4-dihydro-2H-pyrimidin-1-yl}bicyclo[1.1.1]pentane-1-carboxylic acid] | 52 |
